By IC50 is commonly meant the midpoint of a concentration-inhibition curve. Read a low IC50 as greater potency in that assay. Usually Ki stands for the equilibrium dissociation constant of an inhibitor or competing ligand from its target. Read a high Ki as a looser hold on the target.

Test [1] deals with T1, Neuraminidase (Influenza A virus, UniProt A5Z252). The experiment in a line: Inhibition of Influenza A virus A/chicken/china/1220/2012(H5N1) Neuraminidase N1.
Test [2] concerns the target T2, Neuraminidase (Influenza A virus, UniProt B4URF0). Also noted: species or system A/chicken/china/415/2013(H9N2).
The target of test [3] is T1, Neuraminidase. The experiment in a line: Binding affinity to Influenza A virus H5N1 Neuraminidase N1.
Test [4] addresses T2, Neuraminidase. The experiment in a line: Binding affinity to Influenza A virus A/Paris/2590/2009 H1N1 Neuraminidase N1.
Test [5] deals with T1, Neuraminidase. The experiment in a line: Binding affinity to Influenza A virus H3N2 Neuraminidase N1.
Test [6] has as its target T1, Neuraminidase. The experiment in a line: Inhibition of Influenza A virus H1N1 Neuraminidase N1.
In test [7] the target is T1, Neuraminidase. The experiment in a line: Inhibition of Influenza A virus H3N2 Neuraminidase N1.

T2 sequence (B4URF0 whole entry): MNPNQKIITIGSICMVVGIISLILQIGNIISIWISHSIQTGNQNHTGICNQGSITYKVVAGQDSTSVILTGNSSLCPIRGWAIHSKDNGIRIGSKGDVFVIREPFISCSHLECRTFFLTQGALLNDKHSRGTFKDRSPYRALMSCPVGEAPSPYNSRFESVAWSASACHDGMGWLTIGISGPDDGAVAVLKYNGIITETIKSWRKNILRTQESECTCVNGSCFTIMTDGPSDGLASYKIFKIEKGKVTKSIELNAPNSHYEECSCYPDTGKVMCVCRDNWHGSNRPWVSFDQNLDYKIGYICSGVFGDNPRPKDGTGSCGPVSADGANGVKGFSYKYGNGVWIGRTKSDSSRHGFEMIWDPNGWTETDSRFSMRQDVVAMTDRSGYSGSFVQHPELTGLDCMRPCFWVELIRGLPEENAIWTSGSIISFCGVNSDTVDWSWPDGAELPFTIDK

As to `CCC(CC)O[C@@H]1C=C(C(=O)O)C[C@H](N(Cc2ccccc2)C(=N)N)[C@H]1NC(C)=O`, the half-inhibitory concentration (IC50) came out at 1170 nM in test [1] and 2600 nM in test [2].

As for `CCC(CC)O[C@@H]1C=C(C(=O)NO)C[C@H](NC(=N)N)[C@H]1NC(C)=O`, the IC50 in test [1] is over 100 nM; in test [2], 200 nM.

As to `CCC(CC)O[C@@H]1C=C(C(=O)NO)C[C@H](N)[C@H]1NC(C)=O`, the half-inhibitory concentration (IC50) in test [1] is over 100 nM; in test [2], 110 nM.

On to `CCC(CC)O[C@@H]1C=C(C(=O)O)C[C@H](N(Cc2cccs2)C(=N)N)[C@H]1NC(C)=O`, for which the concentration for half-maximal inhibition (IC50) in test [1] was found to be 200 nM; in test [2] it was 210 nM.

As for `CCC(CC)O[C@@H]1C=C(C(=O)O)C[C@H](N(Cc2ccc(C(C)C)cc2)C(=N)N)[C@H]1NC(C)=O`, the half-maximal inhibitory concentration (IC50) in test [1] worked out at 1440 nM; in test [2], 2370 nM.

Consider `CCC(CC)O[C@@H]1C=C(C(=O)O)C[C@H](N(Cc2ccccc2OC)C(=N)N)[C@H]1NC(C)=O`, for which the 50% inhibitory concentration (IC50) in test [1] amounted to 550 nM; in test [2], 490 nM.

On to `CCC(CC)O[C@@H]1C=C(C(=O)O)C[C@H](N(Cc2ccc(-c3ccccc3)cc2)C(=N)N)[C@H]1NC(C)=O`, for which the half-maximal inhibitory concentration (IC50) was found to be 150 nM in test [1] and 470 nM in test [2].

Consider `CCCN(C(=N)N)[C@H]1CC(C(=O)O)=C[C@@H](OC(CC)CC)[C@@H]1NC(C)=O`, for which the 50% inhibitory concentration (IC50) is 670 nM in test [1] and over 5000 nM in test [2].

In the case of `CCC(CC)O[C@@H]1C=C(C(=O)O)C[C@H](N(CC(C)C)C(=N)N)[C@H]1NC(C)=O`, the IC50 in test [1] was 230 nM; in test [2], over 5000 nM.

For `CCCCCN(C(=N)N)[C@H]1CC(C(=O)O)=C[C@@H](OC(CC)CC)[C@@H]1NC(C)=O`, the concentration for half-maximal inhibition (IC50) is 780 nM in test [1] and over 5000 nM in test [2].

On to `CCCCN(C(=N)N)[C@H]1CC(C(=O)O)=C[C@@H](OC(CC)CC)[C@@H]1NC(C)=O`, for which the figures for the concentration for half-maximal inhibition (IC50) in test [1] and in test [2] were 1140 nM and 1480 nM, respectively.

Regarding `CCC(CC)O[C@@H]1C=C(C(=O)O)C[C@H](N(CCC(C)C)C(=N)N)[C@H]1NC(C)=O`, the IC50 is 370 nM in test [1] and over 5000 nM in test [2].

`CCC(CC)CN(C(=N)N)[C@H]1CC(C(=O)O)=C[C@@H](OC(CC)CC)[C@@H]1NC(C)=O`: the IC50 in test [1] is 950 nM; in test [2] it was over 5000 nM.

For `CCC(CC)O[C@@H]1C=C(C(=O)O)C[C@H](N(CCCc2ccccc2)C(=N)N)[C@H]1NC(C)=O`, the IC50 in test [1] is 790 nM; in test [2], over 5000 nM.

Regarding `CCC(CC)CN[C@H]1CC(C(=O)O)=C[C@@H](OC(CC)CC)[C@@H]1NC(C)=O`, the concentration for half-maximal inhibition (IC50) came out at 27 nM in test [1] and 300 nM in test [2].

As to `CCCCN[C@H]1CC(C(=O)O)=C[C@@H](OC(CC)CC)[C@@H]1NC(C)=O`, the half-inhibitory concentration (IC50) is 19 nM in test [1] and 2280 nM in test [2].

For the compound `CCC(CC)O[C@@H]1C=C(C(=O)O)C[C@H](NCC(C)C)[C@H]1NC(C)=O`, the IC50 is 78 nM in test [1] and over 5000 nM in test [2].

In the case of `CCC(CC)O[C@@H]1C=C(C(=O)O)C[C@H](NCc2cccs2)[C@H]1NC(C)=O`, the concentration for half-maximal inhibition (IC50) in test [1] worked out at 15 nM; in test [2], 740 nM.

For `CCC(CC)O[C@@H]1C=C(C(=O)O)C[C@H](NCc2ccccc2)[C@H]1NC(C)=O`, the IC50 in test [1] came to 7.1 nM; in test [2] it was 2440 nM.

For the compound `CCC(CC)O[C@@H]1C=C(C(=O)O)C[C@H](NCc2ccccc2OC)[C@H]1NC(C)=O`, the results for the 50% inhibitory concentration (IC50) in test [1] and in test [2] were 31 nM and 1640 nM, respectively.

`CCC(CC)O[C@@H]1C=C(C(=O)O)C[C@H](NCc2ccccc2O)[C@H]1NC(C)=O`: the values for the half-maximal inhibitory concentration (IC50) in test [1] and in test [2] were 21 nM and over 5000 nM, respectively.

Take `CCC(CC)O[C@@H]1C=C(C(=O)O)C[C@H](NCc2ccccc2Cl)[C@H]1NC(C)=O`: the IC50 in test [1] stood at 3.6 nM; in test [2], 980 nM.

`CCC(CC)O[C@@H]1C=C(C(=O)O)C[C@H](NCc2ccccc2Br)[C@H]1NC(C)=O`: the results for the half-inhibitory concentration (IC50) in test [1] and in test [2] were 13 nM and 1150 nM, respectively.

As for `CCC(CC)O[C@@H]1C=C(C(=O)O)C[C@H](NCc2ccccc2F)[C@H]1NC(C)=O`, the values for the 50% inhibitory concentration (IC50) in test [1] and in test [2] were 10 nM and 2720 nM, respectively.

Consider `CCC(CC)O[C@@H]1C=C(C(=O)O)C[C@H](NC/C=C/c2ccccc2)[C@H]1NC(C)=O`, for which the results for the IC50 in test [1] and in test [2] were 14 nM and 4020 nM, respectively.

As for `CCC(CC)O[C@@H]1C=C(C(=O)O)C[C@H](NCc2ccc(-c3ccccc3)cc2)[C@H]1NC(C)=O`, the IC50 in test [1] is 1.9 nM; in test [2], 1200 nM.

Consider `CCC(CC)O[C@@H]1C=C(C(=O)O)C[C@H](NCCCc2ccccc2)[C@H]1NC(C)=O`, for which the concentration for half-maximal inhibition (IC50) in test [1] was 32 nM; in test [2], over 5000 nM.

As for `CCC(CC)O[C@@H]1C=C(C(=O)O)C[C@H](NCCCN)[C@H]1NC(C)=O`, the IC50 in test [1] was over 100 nM; in test [2], 950 nM.

Regarding `CCC(CC)O[C@@H]1C=C(C(=O)O)C[C@H](NCc2ccccc2OCc2ccco2)[C@H]1NC(C)=O`, the half-maximal inhibitory concentration (IC50) turned out to be 59 nM in test [1] and 1530 nM in test [2].

On to `C=CCOc1ccccc1CN[C@H]1CC(C(=O)O)=C[C@@H](OC(CC)CC)[C@@H]1NC(C)=O`, for which the IC50 was 90 nM in test [1] and 4700 nM in test [2].

As to `CCC(CC)O[C@@H]1C=C(C(=O)O)C[C@H](NCc2ccc(-c3ccccc3)cc2Cl)[C@H]1NC(C)=O`, the concentration for half-maximal inhibition (IC50) came to 11 nM in test [1] and 2020 nM in test [2].

On to `CCC(CC)O[C@@H]1C=C(C(=O)O)C[C@H](NCc2ccc(-c3ccccc3)cc2-c2ccccc2)[C@H]1NC(C)=O`, for which the IC50 is 43 nM in test [1] and 3.2 nM in test [2].

For the compound `CCC(CC)O[C@@H]1C=C(C(=O)O)C[C@H](NCc2ccc(-c3cccs3)cc2)[C@H]1NC(C)=O`, the IC50 came to 2.1 nM in test [1] and 3520 nM in test [2].

Turning to `CC(=O)N[C@H]1C([C@H](O)[C@H](O)CO)OC(C(=O)O)=C(C/C=C/c2ccc(C)cc2)[C@@H]1O` (stereo partly drawn), the Ki in test [3] was 7300 nM; in test [4], 1700 nM; in test [5], 219000 nM.

For `CC(=O)N[C@H]1[C@H]([C@H](O)[C@H](O)CO)OC(C(=O)O)=C[C@@H]1NC(=N)NC(=O)CSc1cccc2ccccc12`, the IC50 in test [6] stood at 21 nM; in test [7] it was 25 nM.

In the case of `CCC(CC)O[C@@H]1C=C(C(=O)O)C[C@H](NC(=N)N)[C@H]1NC(C)=O`, the half-maximal inhibitory concentration (IC50) worked out at 6.9 nM in test [1] and 6.4 nM in test [2].
